The values below come from patent publication US12410152B2, “Oxazole and thioazole-type cullin ring ubiquitin ligase compounds and uses thereof” (Proxygen GmbH, priority 2019, dated 2025).

For test [1], the system named is T1, cyclin K (CCNK) (Homo sapiens).
T1 construct: endogenous in cells; host or cells: KBM7 cells (WT and UBE2M/CUL4B/UBE2G1 mutant clones)
Kind of test: CCNK destabilization/degradation (expression proteomics and Western blot). The class given is cell-based. The note with it: wild-type KBM7 cells. The method, then: (§1) The hypomorphic phenotype of the mutated UBE2M allele in KBM7 cells (KBM7 UBE2M^mut cells) was assessed. In this regard, CRISPR/Cas9-induced mutation of UBE2M inactivated CRL activity including CRL4^CRBN and CRL2^VHL. […] Additionally, CCNK destabilization by all three compounds was validated via time-resolved immunoblots wherein CCNK degradation was evident after two hours (FIG. 19c).
(§2) Subsequently, a total of 53 structurally related analogue compounds in dose-ranging viability assays in KBM7 wildtype- and UBE2M^mut cells was tested to develop a structure-activity relationship for the assayed compounds. This informed on sites amenable for derivatization of analogs (FIG. 20a), and also to the identification of structurally similar small molecules with no measurable activity that are thus suited negative controls. […] CRL activity-dependent degradation of CCNK could be rescued by pharmacologic NAE inhibition and by blocking the ubiquitin activating enzyme UBA1, particularly by pretreating the cells with 1 μM carfilzomib (Selleckchem, S2853), 1 μM MLN4924 (Selleckchem, S7109), 10 μM TAK-243 (MedChemExpress, HY-100487) or 1 μM THZ531 (MedChemExpress HY-103618) (FIG. 19d). Furthermore, treatment with the selective covalent CDK12/13 inhibitor THZ531, which binds to the ATP binding pocket of CDK12/13, rescued CCNK degradation (FIG. 19d) indicating the role of the active site of CDK12/13 for CRL activity-dependent CCNK degradation by the identified compounds (FIG. 19d).
(§3) PBS-washed cell pellets were lysed in 50 mM Tris pH 7.9, 8M Urea and 1% CHAPS and incubated with shaking at 4° C. for at least 30 min. 20 μg of supernatants were run and transferred for detection. Antibodies used: CUL1 (Santa Cruz Biotechnology, sc-1276), CUL2 (Sigma-Aldrich, SAB2501565-100), CUL3 (Cell Signaling Technology, 2759), CUL4A (Cell Signaling Technology, 2699S), CUL4B (Proteintech, 12916-1-AP), CUL5 (Santa Cruz Biotechnology, sc-373822), UBE2M (Santa Cruz Biotechnology, sc-390064), DDB1 (Cell Signaling Technology, 5428S), CCNK (Bethyl, A301-939A), CDK12 (Cell Signaling Technology, 11973S), CDK13 (Bethyl, A301-458A), RBM39 (1:500, Santa Cruz Biotechnology sc-376531), V5 (Cell Signaling Technology, 13202), Ubiquityl-Histone H2A (K119) (Cell Signaling, 8240-20). ACTIN (Sigma-Aldrich, A5441), VINCUL1N (Santa Cruz Biotechnology, sc-25336). Secondary antibodies anti-mouse/rabbit/goat (Jackson ImmunoResearch 115-035-003, 111-035-003 and 705-035-003).
(§4) Comparison of overall proteome-wide changes in KBM7 cells treated with IC020772.1 (2.5 μM), IC021313.2 (7 μM) or T6938051 (3.5 μM) for 5 h and 12h, using quantitative proteomics based on isobaric tagging.

The target of the next test is T2, cyclin K (CCNK) (Homo sapiens, UniProt Q16531+Q9NYV4).
T2 construct: endogenous in cells; host or cells: KBM7 cells (WT and UBE2M/CUL4B/UBE2G1 mutant clones)
T2 sequence (O75909 whole entry partner): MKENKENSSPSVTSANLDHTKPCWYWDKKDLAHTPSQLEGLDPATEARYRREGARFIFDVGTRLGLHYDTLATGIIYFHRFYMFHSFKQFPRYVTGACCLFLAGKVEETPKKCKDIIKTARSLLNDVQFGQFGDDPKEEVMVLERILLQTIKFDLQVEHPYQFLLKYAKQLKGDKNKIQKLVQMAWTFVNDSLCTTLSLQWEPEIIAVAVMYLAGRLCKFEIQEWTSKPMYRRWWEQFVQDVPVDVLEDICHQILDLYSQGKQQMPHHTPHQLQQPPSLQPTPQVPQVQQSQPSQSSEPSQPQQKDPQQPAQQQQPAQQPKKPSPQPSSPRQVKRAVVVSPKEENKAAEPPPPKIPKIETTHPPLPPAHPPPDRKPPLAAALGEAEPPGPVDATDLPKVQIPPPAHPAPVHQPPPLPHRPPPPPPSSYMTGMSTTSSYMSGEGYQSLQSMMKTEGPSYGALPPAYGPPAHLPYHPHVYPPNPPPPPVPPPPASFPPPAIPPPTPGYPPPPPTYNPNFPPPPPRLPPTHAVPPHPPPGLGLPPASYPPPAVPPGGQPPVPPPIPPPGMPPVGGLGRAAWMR
T2 sequence (Q9NYV4 whole entry): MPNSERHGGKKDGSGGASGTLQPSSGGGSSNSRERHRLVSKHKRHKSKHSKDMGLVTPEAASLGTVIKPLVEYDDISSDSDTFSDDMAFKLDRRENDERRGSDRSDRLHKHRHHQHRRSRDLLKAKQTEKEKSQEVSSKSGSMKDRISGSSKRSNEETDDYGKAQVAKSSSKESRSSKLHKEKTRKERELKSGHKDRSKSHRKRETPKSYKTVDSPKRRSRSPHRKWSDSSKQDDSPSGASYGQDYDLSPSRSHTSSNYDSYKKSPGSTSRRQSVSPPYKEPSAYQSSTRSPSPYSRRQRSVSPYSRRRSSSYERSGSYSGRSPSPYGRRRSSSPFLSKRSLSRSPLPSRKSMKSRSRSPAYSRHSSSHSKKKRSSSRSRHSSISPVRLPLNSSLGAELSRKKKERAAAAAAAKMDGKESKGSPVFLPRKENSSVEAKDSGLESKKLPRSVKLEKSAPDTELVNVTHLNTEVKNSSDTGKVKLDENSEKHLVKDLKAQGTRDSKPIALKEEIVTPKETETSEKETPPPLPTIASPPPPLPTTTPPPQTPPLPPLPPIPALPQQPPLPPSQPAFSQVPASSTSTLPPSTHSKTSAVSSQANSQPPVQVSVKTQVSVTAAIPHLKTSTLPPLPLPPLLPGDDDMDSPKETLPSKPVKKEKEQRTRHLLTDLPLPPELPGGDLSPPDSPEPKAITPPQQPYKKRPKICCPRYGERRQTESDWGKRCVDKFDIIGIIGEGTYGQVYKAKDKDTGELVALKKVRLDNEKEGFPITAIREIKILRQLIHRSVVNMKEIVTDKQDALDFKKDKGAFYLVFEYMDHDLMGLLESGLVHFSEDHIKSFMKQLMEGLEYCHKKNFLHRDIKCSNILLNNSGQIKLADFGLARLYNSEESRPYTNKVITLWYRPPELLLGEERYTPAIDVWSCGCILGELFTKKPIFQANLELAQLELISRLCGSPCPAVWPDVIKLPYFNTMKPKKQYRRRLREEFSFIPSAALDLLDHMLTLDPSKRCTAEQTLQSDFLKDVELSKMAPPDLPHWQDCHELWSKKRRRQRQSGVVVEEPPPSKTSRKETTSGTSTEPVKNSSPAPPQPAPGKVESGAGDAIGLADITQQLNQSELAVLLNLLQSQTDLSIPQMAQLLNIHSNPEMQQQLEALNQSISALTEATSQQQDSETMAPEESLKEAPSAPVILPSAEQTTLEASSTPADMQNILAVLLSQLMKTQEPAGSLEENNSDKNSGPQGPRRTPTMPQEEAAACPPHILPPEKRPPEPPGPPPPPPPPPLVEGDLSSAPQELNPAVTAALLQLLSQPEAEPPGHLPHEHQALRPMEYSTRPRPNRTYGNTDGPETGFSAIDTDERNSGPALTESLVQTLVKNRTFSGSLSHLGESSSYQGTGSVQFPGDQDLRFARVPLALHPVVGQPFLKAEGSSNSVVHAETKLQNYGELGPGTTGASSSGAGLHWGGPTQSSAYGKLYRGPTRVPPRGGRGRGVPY
T2 sequence (Q16531 2-1140 limits assumed): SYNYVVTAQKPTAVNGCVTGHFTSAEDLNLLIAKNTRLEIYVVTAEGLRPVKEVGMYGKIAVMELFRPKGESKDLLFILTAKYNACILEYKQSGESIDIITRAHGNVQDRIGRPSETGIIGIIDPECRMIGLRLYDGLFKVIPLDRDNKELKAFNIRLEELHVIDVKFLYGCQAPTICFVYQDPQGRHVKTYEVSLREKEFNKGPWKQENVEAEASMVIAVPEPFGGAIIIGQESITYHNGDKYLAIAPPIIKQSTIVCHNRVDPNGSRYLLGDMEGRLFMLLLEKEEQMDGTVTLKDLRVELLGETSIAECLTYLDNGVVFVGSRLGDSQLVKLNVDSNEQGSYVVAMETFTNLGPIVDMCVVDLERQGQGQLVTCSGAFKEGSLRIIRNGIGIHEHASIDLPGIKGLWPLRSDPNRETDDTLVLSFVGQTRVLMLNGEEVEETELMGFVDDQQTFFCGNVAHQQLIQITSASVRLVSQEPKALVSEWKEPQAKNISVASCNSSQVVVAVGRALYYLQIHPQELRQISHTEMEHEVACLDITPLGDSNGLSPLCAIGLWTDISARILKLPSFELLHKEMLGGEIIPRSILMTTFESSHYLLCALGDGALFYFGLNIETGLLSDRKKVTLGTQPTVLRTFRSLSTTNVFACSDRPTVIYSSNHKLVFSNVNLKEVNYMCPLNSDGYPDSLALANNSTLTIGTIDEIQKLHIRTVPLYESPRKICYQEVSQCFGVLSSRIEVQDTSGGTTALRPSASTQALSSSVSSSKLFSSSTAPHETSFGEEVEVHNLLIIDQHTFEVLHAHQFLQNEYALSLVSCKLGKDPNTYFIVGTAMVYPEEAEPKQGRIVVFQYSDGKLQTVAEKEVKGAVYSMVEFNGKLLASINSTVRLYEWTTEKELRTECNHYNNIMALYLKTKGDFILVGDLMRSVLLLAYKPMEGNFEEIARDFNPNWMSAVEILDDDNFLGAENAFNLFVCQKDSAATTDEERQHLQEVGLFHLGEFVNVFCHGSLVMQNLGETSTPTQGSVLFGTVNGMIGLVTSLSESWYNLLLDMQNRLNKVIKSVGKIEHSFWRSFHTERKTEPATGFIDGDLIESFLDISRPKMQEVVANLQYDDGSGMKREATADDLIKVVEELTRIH
T2 sequence (Q13620 whole entry partner): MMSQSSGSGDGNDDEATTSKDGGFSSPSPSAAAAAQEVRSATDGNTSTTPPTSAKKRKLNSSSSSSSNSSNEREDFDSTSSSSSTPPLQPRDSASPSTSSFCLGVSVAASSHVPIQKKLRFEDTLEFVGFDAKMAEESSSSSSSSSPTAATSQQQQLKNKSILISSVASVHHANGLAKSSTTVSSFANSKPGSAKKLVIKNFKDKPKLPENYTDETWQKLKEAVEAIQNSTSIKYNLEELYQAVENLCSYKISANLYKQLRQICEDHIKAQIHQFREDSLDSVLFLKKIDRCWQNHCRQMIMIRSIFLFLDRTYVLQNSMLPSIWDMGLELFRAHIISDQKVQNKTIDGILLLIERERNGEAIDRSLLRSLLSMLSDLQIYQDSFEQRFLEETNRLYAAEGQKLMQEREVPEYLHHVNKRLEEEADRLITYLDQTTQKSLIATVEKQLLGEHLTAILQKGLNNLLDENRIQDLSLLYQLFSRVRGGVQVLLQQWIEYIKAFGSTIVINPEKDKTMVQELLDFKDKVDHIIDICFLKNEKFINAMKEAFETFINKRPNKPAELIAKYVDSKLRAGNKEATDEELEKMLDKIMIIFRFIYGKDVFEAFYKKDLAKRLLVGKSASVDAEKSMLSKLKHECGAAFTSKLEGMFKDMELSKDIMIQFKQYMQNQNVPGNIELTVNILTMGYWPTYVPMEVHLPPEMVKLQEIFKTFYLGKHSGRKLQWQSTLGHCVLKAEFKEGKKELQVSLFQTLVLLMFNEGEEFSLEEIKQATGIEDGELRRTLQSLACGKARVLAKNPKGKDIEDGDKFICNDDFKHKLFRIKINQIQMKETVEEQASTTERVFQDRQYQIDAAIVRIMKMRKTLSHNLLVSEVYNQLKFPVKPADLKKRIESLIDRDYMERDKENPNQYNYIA
T2 sequence (P62877 whole entry partner): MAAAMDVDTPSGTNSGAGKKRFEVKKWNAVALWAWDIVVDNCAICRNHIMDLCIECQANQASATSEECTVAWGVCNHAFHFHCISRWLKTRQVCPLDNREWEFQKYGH
The description is as above. In kind it is cell-based. Conditions: for effect on CCNK upon inactivation of DDB1, UBE2G1 and UBE2M: CRISPR-inactivated KBM7 cells. The method, then:
as §1, §2, §3, §4

The next test has as its system CDK12/13. As to the kind of experiment: CDK12/13 destabilization (expression proteomics and Western blot). In kind it is cell-based, human. Conditions: KBM7 cells. On the procedure:
as §1, §3, §4
For orientation: In western blotting, separated proteins are transferred to a membrane and probed.

In test [2] the test system is KBM7 WT and UBE2Mmut cells. Kind of test: Primary phenotypic screen, differential viability KBM7 WT vs UBE2M mutant. The class given is cell-based, human. The note with it: 10 μM and 500 nM, 3 days. The method, then: Following this observation, it was rationalized that novel small molecule degraders can be identified in an unbiased manner, simply by searching for compounds that lose activity in the absence of UBE2M. 2000 small molecules, mostly of unknown function/target, were tested for their antiproliferative effects in human leukemia cells (KBM7). These cells were either transduced with a control sgRNA (KBM7WT), or with an sgRNA targeting UBE2M, leading to a hypomorph (deletion of six amino acids) with a functional impairment (UBE2Mmut).
KBM7^WT and UBE2M^mut cells were treated with a compound library (2000 cytotoxic diverse small-molecules, mostly of unknown function/target). Briefly, the screening was divided in three parts 1) primary screening, 2) follow up and 3) validation. During the primary screening, cells were treated with 10 μM and 500 nM of every compound. […] After 3 days of treatment, cell viability was measured (CellTiter Glo, Promega). The screen was perform in 384-well plates (Corning 3712) and the reagent/compound dispensing system used was: Echo 520 Liquid Handler, Multidrop™ Combi Reagent Dispenser. Control compounds were included in several wells, in all the plates. Method for validation of IC021313.2, IC020822.1, IC020772.1, T6938051 as described above in (i).

T1 sequence (O75909 whole entry partner): as the sequence (O75909 whole entry partner) above
T1 sequence (Q9NYV4 whole entry, further chain): as the sequence (Q9NYV4 whole entry) above
T1 sequence (Q16531 2-1140 limits assumed, further chain): as the sequence (Q16531 2-1140 limits assumed) above
T1 sequence (Q13620 whole entry partner): as the sequence (Q13620 whole entry partner) above
T1 sequence (P62877 whole entry partner): as the sequence (P62877 whole entry partner) above

For `O=C(CSc1nc2ccccc2[nH]1)Nc1ccc(Cl)cn1` [IC021313.2], the CCNK destabilization result in test [1] was “destabilization of cyclin K (CCNK)”. For the same compound, the “effect on CCNK upon inactivation of DDB1, UBE2G1 and UBE2M” value (from here on “effect on CCNK upon inactivation of DDB1”) on cyclin K (CCNK) is listed as “abrogated”. Further, at cyclin K (CCNK) (expression proteomics, drug vs DMSO, Table 4, log2FC < −0.3), the “logFC (IC021313.2/DMSO), CCNK (O75909-3)” value is −0.873. Besides, the CDK12/13 destabilization result in the test with CDK12/13 is “milder CDK12/13 destabilization”. Also, the “hit in differential viability screen” value in test [2] is recorded as “stood out in terms of fold-change significance”.

In the case of `Cc1ccc(C(=O)N2CSCC2C(=O)N=c2[nH]cc(C)s2)o1` (stereo not shown) [Compound T6938051], the CCNK destabilization result in test [1] was “destabilization of cyclin K (CCNK)”. Further, the “effect on CCNK upon inactivation of DDB1” value at cyclin K (CCNK) was “abrogated”. The CDK12/13 destabilization entry in the test with CDK12/13 is listed as “milder CDK12/13 destabilization”. In addition, the “hit in differential viability screen” value in test [2] was “stood out in terms of fold-change significance”.

Regarding `O=C(CSc1nnc2c(n1)[nH]c1ccccc12)Nc1ccc(Cl)cn1` [IC020772.1], the CCNK destabilization result in test [1] is recorded as “destabilization of cyclin K (CCNK)”. Further, the “effect on CCNK upon inactivation of DDB1” value at cyclin K (CCNK) is given as “abrogated”. Also, the CDK12/13 destabilization entry in the test with CDK12/13 was “milder CDK12/13 destabilization”. Besides, the “hit in differential viability screen” value in test [2] is “stood out in terms of fold-change significance”.
